Assay results published in patent publication US12606508B2, “Cannabis extracts and uses thereof” (priority 2020, dated 2026).
Like-named read-outs stand apart in the source and are kept apart here.

Columns and labels:
human CB1 receptor = molecular target: T1, human CB1 receptor (Homo sapiens, UniProt P21554); test: Radioligand binding assay at human CB1 receptor ([^3H]CP55940 displacement, Eurofins Discovery); settings: for Ki: Cheng Prusoff from IC50, [^3H]CP55940 radioligand, read-out: hCB1 Ki; for times more active than (−)-trans-Δ^9-THCV against CB1 receptor: comparator Δ^9-THCV (Ki 75.4 nM, literature); for times more active than (−)-trans-Δ^9-THC against CB1 receptor: comparator Δ^9-THC (Ki=40 nM, literature)
T1 construct: Eurofins Discovery (contract assay)
Procedure: 2.2.4 Binding affinity at human CB1 and CB2 receptors. The binding affinity of (−)-trans-Δ^9-THCB against purified human CB1 and CB2 receptors was determined in a radioligand binding assay. The capability of the ligand to displace radiolabeled [^3H] […] Binding at CB1 and CB2 Receptors. The binding affinity of (−)-trans-Δ^9-THCB against human CB1 and CB2 receptors was determined in a radioligand binding assay performed by Eurofins Discovery. The compound was tested at ten concentrations, ranging from 1 nM to 30 μM, in duplicate. The compound binding was calculated as a % inhibition of the binding of a radioactively labeled ligand specific for each target. […] The results were expressed as a percent inhibition of control specific binding obtained in the presence of the tested compounds using eq. 1.
(§1) The IC50 values (concentration causing a half-maximal inhibition of control specific binding) were determined by non-linear regression analysis of the competition curves generated with mean replicate values (eq. 2)^55.
(§2) Where Y is the specific binding, A is the left asymptote of the curve, D is the right asymptote f the curve, C is the compound concentration, C50 is the IC50 value and nH is the slope factor. […] The inhibition constants (Ki) were calculated using the Cheng Prusoff equation: […]
(§3) 3.1.4 Binding affinity at human CB1 and CB2 receptors. […] The binding affinity of (−)-trans-Δ^9-THCP against human CB1 and CB2 receptors was assessed by Eurofins Discovery using a radioligand binding assay. […] Eq. 1 was employed to calculate the percent inhibition of control specific binding obtained in the presence of the tested compounds.
A non-linear regression analysis of the competition curves generated with mean replicate values (eq. 2) was used to calculate the IC50 values (concentration causing a half-maximal inhibition of control specific binding)^51.
Where Y is the specific binding, A is the left asymptote of the curve, D is the right asymptote f the curve, C is the compound concentration, C50 is the IC50 value and nH is the slope factor. […] The inhibition constants (Ki) were determined using the Cheng Prusoff equation (eq. 3):
[formula] • where L is the concentration of the radioligand, and KD is the affinity of the radioligand for the receptor.

human CB2 receptor = molecular target: T2, human CB2 receptor (Homo sapiens, UniProt P34972); test: Radioligand binding assay at human CB2 receptor ([^3H]WIN 55212-2 displacement, Eurofins Discovery)
T2 construct: Eurofins Discovery (contract assay)
Procedure: 2.2.4 Binding affinity at human CB1 and CB2 receptors. The binding affinity of (−)-trans-Δ^9-THCB against purified human CB1 and CB2 receptors was determined in a radioligand binding assay. The capability of the ligand to displace radiolabeled [^3H]
Binding at CB1 and CB2 Receptors. The binding affinity of (−)-trans-Δ^9-THCB against human CB1 and CB2 receptors was determined in a radioligand binding assay performed by Eurofins Discovery. The compound was tested at ten concentrations, ranging from 1 nM to 30 μM, in duplicate. The compound binding was calculated as a % inhibition of the binding of a radioactively labeled ligand specific for each target. […] The results were expressed as a percent inhibition of control specific binding obtained in the presence of the tested compounds using eq. 1.
as §1, §2
as §3, with “compounds. […]” for “compounds.”
Where Y is the specific binding, A is the left asymptote of the curve, D is the right asymptote f the curve, C is the compound concentration, C50 is the IC50 value and nH is the slope factor. […] The inhibition constants (Ki) were determined using the Cheng Prusoff equation (eq. 3): […]

C57BL6/J mice [1] = test: Tetrad: bar test (catalepsy); assay type: in vivo; settings: mean±SEM
Procedure: (§4) Mice (n=4) were treated with Δ^9-THCB (10 and 20 mg/kg) or vehicle (0.9% saline and 0.05% DMSO) by intraperitoneal (i.p.) administration. Mice were evaluated for hypomotility (open field test), hypothermia (body temperature test), antinociceptive (hot plate test), and cataleptic effects (bar test), using the tetrad tests as described in the protocol by Metna-Laurent M. et al.^62 Statistical analysis was performed using the Kruskall-Wallis test and Dunn's post hoc tests.
Bar test. The bar used was a 40 cm long and 0.4 cm wide in diameter glass rod, which was horizontally elevated by 5 cm above the surface. Both forelimbs of the mouse were positioned on the bar and its hind legs on the floor of the cage, ensuring that the animal was not lying down on the floor. The chronometer was stopped when the mouse descended from the bar (i.e., when the two forepaws touched the floor) or after the 10 min cut-off time. Catalepsy was measured as the time duration each mouse held the bar by both his forelimbs (latency for moving in seconds).
(§5) Male C57BL6/J mice (7 weeks old; n=5) were treated with Δ^9-THCP (10, 5 and 2.5 mg/kg) or vehicle (1:1:18; ethanol:Kolliphor EL:0.9% saline) by i.p. administration. Mice were evaluated for hypomotility (open field test), hypothermia (body temperature), antinociceptive (hot plate test), and cataleptic (bar test) effects, using the tetrad tests^58. Statistical analysis was performed using the Kruskall-Wallis test and Dunn's post hoc tests.
Bar test. The bar test was used for the evaluation of catalepsy. Bar was a 40 cm in length and 0.4 cm in diameter glass rod, which was horizontally elevated by 5 cm above the surface. Both forelimbs of mice were positioned on the bar and its hind legs on the floor of the cage, ensuring that the mouse was not lying down on the floor. The chronometer was stopped when the mouse descends from the bar (i.e., when the two forepaws touched the floor) or when 10 min have elapsed (i.e., cut-off time). Catalepsy was measured as the time duration each mouse held the elevated bar by both his forelimbs (latency for moving in seconds).

C57BL6/J mice [2] = test: Tetrad: body (rectal) temperature test; assay type: in vivo; settings: mean±SEM; for change in rectal temperature: 50 min after administration vs basal, n=4, vehicle 0.53; for change in body temperature: difference to basal temperature, n=5, vehicle 0.40
Procedure: as §4
Body temperature test. A probe was gently inserted for 1 cm into the mouse rectum after the animal had been immobilized. The probe was washed and cleaned with 70% ethanol and the dried with a paper towel. The body temperature was measured after stabilization of the value in ° C. in basal conditions and at 50 minutes after drug or vehicle administration.
as §5
Body temperature. The mouse was immobilized and the probe gently inserted for 1 cm into the rectum until stabilization of temperature. Between each mouse the probe was cleaned with 70% ethanol and dried with paper towel.

T1 sequence (P21554 whole entry): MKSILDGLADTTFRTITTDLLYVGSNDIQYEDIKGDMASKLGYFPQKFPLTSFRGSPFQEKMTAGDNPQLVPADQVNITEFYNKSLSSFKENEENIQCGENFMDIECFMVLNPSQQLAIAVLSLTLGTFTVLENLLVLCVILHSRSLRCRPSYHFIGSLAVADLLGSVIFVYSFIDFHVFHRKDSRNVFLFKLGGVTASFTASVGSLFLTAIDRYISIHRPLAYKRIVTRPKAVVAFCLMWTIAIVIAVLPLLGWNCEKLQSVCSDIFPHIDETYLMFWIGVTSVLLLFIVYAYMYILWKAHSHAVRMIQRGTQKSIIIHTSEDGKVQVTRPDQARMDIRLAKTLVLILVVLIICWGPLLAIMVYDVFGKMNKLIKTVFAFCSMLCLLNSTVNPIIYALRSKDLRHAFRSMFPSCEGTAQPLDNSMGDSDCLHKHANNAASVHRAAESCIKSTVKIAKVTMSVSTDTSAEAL
T2 sequence (P34972 whole entry): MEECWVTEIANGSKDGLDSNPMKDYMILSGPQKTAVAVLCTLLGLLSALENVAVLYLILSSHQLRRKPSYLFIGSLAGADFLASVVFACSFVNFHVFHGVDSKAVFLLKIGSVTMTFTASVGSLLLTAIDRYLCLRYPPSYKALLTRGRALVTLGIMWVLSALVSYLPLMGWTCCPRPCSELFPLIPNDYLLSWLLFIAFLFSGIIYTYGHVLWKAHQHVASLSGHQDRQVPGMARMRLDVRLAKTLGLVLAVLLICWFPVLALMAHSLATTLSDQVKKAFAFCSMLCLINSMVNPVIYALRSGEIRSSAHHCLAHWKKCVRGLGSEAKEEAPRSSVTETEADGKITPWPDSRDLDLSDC

SMILES	Ki (human CB1 receptor) [nM]	IC50 (human CB1 receptor; displacement of [^3H]CP55940, ten concentrations 1 nM to 30 μM, duplicate, SD within ±10%, read-out: hCB1 IC50) [nM]	times more active than (−)-trans-Δ^9-THCV against CB1 receptor (human CB1 receptor; ratio of Ki)	Ki (human CB2 receptor; Cheng Prusoff from IC50, [^3H]WIN 55212-2 radioligand, read-out: hCB2 Ki) [nM]	IC50 (human CB2 receptor; displacement of [^3H]WIN 55212-2, ten concentrations 1 nM to 30 μM, duplicate, SD within ±10%, read-out: hCB2 IC50) [nM]	bar test: latency for moving from the catalepsy bar (C57BL6/J mice [1]; Δ^9-THCB 10 mg/kg i.p., n=4, vehicle 3.50) [s]	bar test: latency for moving from the catalepsy bar (C57BL6/J mice [1]; Δ^9-THCB 20 mg/kg i.p., n=4, vehicle 3.50) [s]	change in rectal temperature (C57BL6/J mice [2]; Δ^9-THCB 10 mg/kg i.p.) [°C]	change in rectal temperature (C57BL6/J mice [2]; Δ^9-THCB 20 mg/kg i.p.) [°C]	binding affinity to CB1 among the compounds (in words) (human CB1 receptor; comparison of alkyl chain homologues)	times more active than (−)-trans-Δ^9-THC against CB1 receptor (human CB1 receptor; ratio of Ki)	times more active than (−)-trans-Δ^9-THC against CB1 receptor (human CB1 receptor; ratio of Ki, listed as (−)-trans-Δ^9-THCP) [times]	times more active than (−)-trans-Δ^9-THCB against CB1 receptor (human CB1 receptor; ratio of Ki, comparator Δ^9-THCB (Ki 15 nM)) [times]	Ki (human CB2 receptor) [nM]	bar test: latency for moving from the catalepsy bar (C57BL6/J mice [1]; Δ^9-THCP 2.5 mg/kg i.p., 10 min cut-off, n=5, vehicle 15.20) [s]	bar test: latency for moving from the catalepsy bar (C57BL6/J mice [1]; Δ^9-THCP 5 mg/kg i.p., 10 min cut-off, n=5, vehicle 15.20) [s]	bar test: latency for moving from the catalepsy bar (C57BL6/J mice [1]; Δ^9-THCP 10 mg/kg i.p., 10 min cut-off, n=5, vehicle 15.20) [s]	change in body temperature (C57BL6/J mice [2]; Δ^9-THCP 2.5 mg/kg i.p.) [°C]	change in body temperature (C57BL6/J mice [2]; Δ^9-THCP 5 mg/kg i.p.) [°C]	change in body temperature (C57BL6/J mice [2]; Δ^9-THCP 10 mg/kg i.p.) [°C]
CCCCc1cc(O)c2c(c1)OC(C)(C)[C@@H]1CCC(C)=C[C@@H]21 [Δ^9-THCB, (6aR,10aR)-3-butyl-6,6,9-trimethyl-6a,7,8,10a-tetrahydro-6H-benzo[c]chromen-1-ol]	15	28	five times more active	51	79	3.0	13.0	−0.28	0.40	–	–	–	–	–	–	–	–	–	–	–
CCCCCCCc1cc(O)c2c(c1)OC(C)(C)[C@@H]1CCC(C)=C[C@@H]21 [Δ^9-THCP, (6aR,10aR)-3-heptyl-6,6,9-trimethyl-6a,7,8,10a-tetrahydro-6H-benzo[c]chromen-1-ol]	1.2	–	63 times	–	–	–	–	–	–	highest binding affinity to CB1	more than thirty-fold higher	33	13	6.2	346.1	493.4	484.5	−4.12	−5.28	−7.10
